In US9131677B2, “Organ preservation solution” (University Court of the University of Edinburgh, priority 2006, dated 2015):

Legend:
aortic rings = experiment: Cold ischaemic storage of aortic rings in UW solutions followed by myograph reoxygenation; parameters: species or system Wistar rats; conditions: for endothelium-dependent relaxation (ACh) vs GSH-free UW: GSH 3 mM, GSHMEE 3 mM
Description: Animal care and experimental protocols were performed in accordance with the Home Office Guidance in the Operation of Animals (Scientific Procedures) Act 1986, UK. Adult male Wistar rats weighing 300-450 g were kept in a temperature-controlled environment with a 12 h light-dark cycle, and allowed free access to water and standard diet. University of Wisconsin solution was prepared according to standard protocol: Potassium lactobionate 100 mM, KH2PO4 25 mM, MgSO4 5 mM, raffinose 30 mM, adenosine 5 mM, allopurinol 1 mM, dexamethasone 16 mg/L, insulin 40 U/L, penicillin 200 000 U/L and EDTA 0.03 mM at pH 7.4. The EDTA was added in order to help protect GSNO against metal-ion catalysed decomposition. The solution was bubbled with argon gas for 1 hour to mimic hypoxia. Oxygen levels were confirmed using an oxygen electrode (Apollo 4000 integrated free radical analyser, World Precision Instruments Inc. USA). Bubbling for 30 minutes depleted >90% of oxygen in solution. Following cervical dislocation, laparotomy was performed and the aorta dissected with clearance of periaortic fat and connective tissue. Vessels were divided into 3-5 mm aortic rings with care taken not to stretch or damage the vessels. Aortic rings were subjected to cold ischaemic storage (4° C. for 1 or 48 hours) in sealed containers filled with hypoxic control (UW without GSH) solution; UW with GSH (3 mM); UW with glutathione monoethyl ester ([…]; 3 mM) or UW with S-nitrosated glutathione (GSNO; 100 μM). After storage, aortic rings were suspended between two stainless steel supports in a myograph (700MO, Danish Myo, Aarhus, Denmark) and reoxygenated in 10 ml organ baths containing Krebs buffer solution (mM): […] Resting tensions of 1.5 g were applied to all rings prior to equilibration (30 minutes). Following equilibration, all vessels were exposed to Krebs buffer containing a high concentration of potassium (60 mM) three times to assess tissue viability and to provide a reference maximum contraction for subsequent data analysis. Each response was followed by a washout. A concentration-response curve to the α1 adrenoceptor agonist, L-phenylephrine (PE; 10^-8M-3×10^-5M) was then constructed and used to identify the concentration of PE required to generate 80% maximal contraction (EC80) for subsequent vasodilator studies. Upon establishing stable contractions, cumulative concentration-response curves to the endothelium-dependent vasodilator, acetylcholine (ACh; 10^-9-10^-5M) were constructed in all preparations. Only one concentration-response curve was obtained per tissue. A further submaximal PE contraction was elicited and the NO synthase inhibitor, N^ω-nitro-L-arginine methyl ester (L-NAME) was applied to inhibit endogenous NO production and to determine the vasodilatory effect of endothelium-derived NO under basal (unstimulated) conditions. Subsequently, the NO scavenger, carboxy-PTIO (cPTIO; 1 mM), was added in order to establish the contribution of NOS-independent NO to any vasodilator tone existing under basal conditions.

[1] = system: Human umbilical vein endothelial cells (HUVEC); experiment: Endothelial cell viability assay (trypan blue exclusion); conditions: for HUVEC cell viability vs control: 37° C., absence of any oxidants (unstressed); for HUVEC cell viability vs control / HUVEC cell survival in the presence of menadione: supplemented UW
Description: Human umbilical vein endothelial cells (HUVEC) were seeded in 162 ml flasks (Dulbecco's modified Eagle's medium 37° C., 5% CO2). Cells were cultured to confluence and transferred to 6-well culture dishes containing phosphate buffered saline (control), UW without GSH, UW+GSH (3 mM), UW+GSH-MEE (3 mM) or UW+GSNO for 24 h (37° C.) in the absence of any oxidants or in the presence of a hydroxyl radical generator (menadione; 10 μM), the superoxide generating system, xanthine+xanthine oxidase (5 μM; 1 mU/ml) or the oxidant species H2O2 (100 μM). Cell viability after 24 h incubations was assessed using a standard trypan blue exclusion assay.

[2] = Decomposition of GSNO in storage, absorbance at 339 nm; format: physicochemical
Description: The freezing point for DMSO is ˜15° C., so these samples were effectively “frozen” for the duration of the experiment, perhaps contributing to the stability of GSNO under these conditions. The apparent depression of absorbance at time zero in the DMSO sample is most likely attributable to incomplete dissolution of the material when the first measurement was taken.

[3] = after 48 h cold ischaemia, GSNO 100 μM

| SMILES | endothelium-dependent relaxation (ACh) vs GSH-free UW (aortic rings; [3]) | HUVEC cell viability vs control ([1]; 24 h) | HUVEC cell survival in the presence of menadione ([1]; 24 h, menadione 10 μM) | contraction on addition of L-NAME to precontracted tissues vs standard UW (aortic rings; after 48 h cold ischaemia) | other results |
| --- | --- | --- | --- | --- | --- |
| N[C@@H](CCC(=O)N[C@@H](CS)C(=O)NCC(=O)O)C(=O)O [GSH, Glutathione] | significantly poorer endothelium-dependent relaxation | significantly reduced viability | significantly enhanced cell survival |  |  |
| CCOC(=O)CNC(=O)[C@H](CS)NC(=O)CC[C@H](N)C(=O)O [GSH-MEE, glutathione monoethyl ester] | no significant difference | significantly reduced viability | significantly enhanced cell survival | significantly lesser contraction |  |
| N[C@@H](CCC(=O)N[C@@H](CSN=O)C(=O)NCC(=O)O)C(=O)O [GSNO, S-nitrosoglutathione] | no significant difference | not significantly different from control | ineffective | significantly lesser contraction | contraction on further addition of NO scavenger cPTIO vs standard UW (aortic rings; after 1 h cold ischaemia): significantly greater contraction; contraction on further addition of cPTIO vs standard UW (aortic rings; after 48 h cold ischaemia): significantly greater contraction; maximal contractions to PE vs GSH-free UW (aortic rings; [3]): significantly depressed maximal contractions; half-life at 100 µM ([2]; modified UW solution, modified UW (containing EDTA but excluding GSH), refrigerator in the dark at 4-6° C.): ~144 h; decomposition of GSNO in 100% DMSO ([2]; same time period, dark, 4-6° C., samples effectively frozen): did not show any significant decomposition |
| OO [H2O2] |  |  |  |  | effect of oxidant on HUVEC cell survival ([1]; 24 h, X/XO 5 μM, 1 mU/ml, H2O2 100 μM): substantial cell death |
| CC1=CC(=O)c2ccccc2C1=O [menadione] |  |  |  |  | cells surviving oxidant treatment under control conditions ([1]; 24 hr treatment, menadione 10 μM): less than 5% |
